Entries after “also recorded” stand apart in the source; their conditions may differ.

This is an account of results in patent US20250186448A1 (Mezzion Pharma Co., Ltd., priority 2021, published 2025).

Test [1] concerns adolescents with Fontan physiology. The experiment in a line: FUEL trial: echocardiographic myocardial performance index (MPI), blood pool Doppler. The format is in vivo, human. The source says:
Generally speaking, MPI (also referred to as the Doppler-derived index or Tei Index) is a measure of ventricular systolic and diastolic function as determined by a focused echocardiogram. It combines systolic and diastolic time intervals to assess heart function. More specifically, MPI can be used to assess ventricular performance represented by a numeric value using cardiac time intervals. This numeric value equals the sum of isovolumetric contraction time (ICT) and isovolumetric relaxation time (IRT) divided by ejection time (ET) and can be determined for either the left or right ventricle. Pellett, A. A., et al.: The Tei Index: Methodology and Disease. State Values. Echocardiography: A Jrnl. of CV Ultrasound & Allied Tech. 21(7):669-672 (2004); and Uluçay, A., Tatli E.: Myocardial performance index. Anadolu Kardiyol Derg. 8(2):143-8 (April, 2008), both of which are incorporated herein by reference in their entireties. In the FUEL Trial, the MPI measured the performance of the single functioning ventricle. Thus, the MPI results from the FUEL Trial were determined by velocities obtained from blood pool Doppler assessment of the inflow and outflow tract of the functioning single ventricle. In other words, the FUEL Trial MPI was determined by measuring the cardiac time intervals using pulsed-wave Doppler velocity spectra of the ventricular inflow and outflow of the single functioning ventricle.
Echocardiograms were performed by sonographers with specific training for this protocol. The primary outcome of interest was MPI using Doppler-based measures of inflow and outflow duration. The duration of inflow into the dominant ventricle and outflow across the dominant semilunar valve were measured and used to calculate MPI using the standard formula. Tei C, Ling L H, Hodge D O, et al.: New index of combined systolic and diastolic myocardial performance: a simple and reproducible measure of cardiac function—a study in normal and dilated cardiomyopathy. J Cardiol, 26(6):357-66 (1995); and Pellet A A et al.: The Tei Index: Methodology and Disease State Values. Echocardiography: A Jrnl Of CV Ultrasound & Allied Tech, 21(7):669-672 (2004). Additional tissue Doppler images were obtained and used to calculate the tissue Doppler based MPI as previously described. Harada K, Tamura M, Toyono M et al.: Comparison of the right ventricular Tei index by tissue Doppler imaging to that obtained by pulsed Doppler in children without heart disease. Am J Cardiol, 90(5):566-9 (2002). Whenever possible, three measurements were made and the mean duration was used for the calculation.
The primary outcome was the change in oxygen consumption at peak exercise (max or peak VO2) from baseline to the 26-week visit. Secondary exercise outcomes included change in additional measures at maximal exertion, as well as change in measures of submaximal exercise at the ventilatory anaerobic threshold (VAT). […] Safety was monitored through adverse event reports, which were collected according to a pre-specified protocol of study coordinator outreach, and through ad hoc patient and family communication with members of the study team at each site.
Each subject underwent an echocardiogram at the start and finish of the 26 weeks. […] The change in the MPI was determined by velocities obtained from blood pool Doppler assessment of the inflow and outflow tract of the single functioning dominant ventricle. […]

Test [2] has the same test system. Nature of the test: FUEL trial: peripheral arterial tonometry (EndoPAT), log-transformed reactive hyperemia index (lnRHI). Type of test: in vivo, human. The source says:
Pulse amplitude tonometry (PAT), a FDA-approved method for assessing vascular function, is increasingly being used as an alternative measure of endothelium-dependent dilation in response to reactive hyperemia and flow-mediated dilation (FMD). The PAT device records digital pulse wave amplitude (PWA) using fingertip plethysmography. PWA can be measured continuously during three phases: a quiet baseline period, 5-min forearm occlusion, and reactive hyperemia following cuff release. Unlike FMD, PAT testing is not dependent upon a highly skilled technician and post-test analysis is largely automated. […]
The primary outcome was the change in oxygen consumption at peak exercise (max or peak VO2) from baseline to the 26-week visit. […] Safety was monitored through adverse event reports, which were collected according to a pre-specified protocol of study coordinator outreach, and through ad hoc patient and family communication with members of the study team at each site.
Baseline clinical testing completed before drug initiation included a blood draw to measure brain-type natriuretic peptide (BNP) level, a cardiopulmonary exercise test (CPET) using a standardized cycle ergometer ramp protocol, a standardized echocardiogram, and an assessment of peripheral vascular function using peripheral arterial tonometry (PAT) measured by finger cuff (EndoPAT; Itamar Medical, Israel). […]

For the molecule `CCCOc1ccc(S(=O)(=O)NCCC2CCCN2C)cc1-c1nc2c(CCC)nn(C)c2c(=O)[nH]1` (stereo not drawn) [Udenafil, udenafil], the “MPI difference, Week 26 - Baseline, mean” value in test [1] (87.5 mg twice daily, paired data, decrease shows improvement, p 0.028 vs placebo) is listed as 122: −0.02. Moreover, the “MPI, LS Mean Dif A − B (udenafil − placebo)” value in test [1] (Baseline, p 0.818) is −0.0; in test [1] (Week 26, p 0.024), −0.04. Moreover, the “MPI, LS Mean Dif A − B (udenafil − placebo) of difference Week 26 - Baseline” value in test [1] (p 0.028) is −0.03. Also, in test [1] (p=0.028), the “MPI, udenafil treated group compared to placebo” value is listed as “statistically significant improvement”. Moreover, in test [2], the “Change in lnRHI (PAT outcome), udenafil vs placebo” value was “no difference; also recorded: did not reveal a benefit”.
